Experimental data reported in patent publication US20180008620A1, “METHODS OF TREATING NEUROLOGICAL INFLAMMATORY DISORDERS” (Mayo Foundation for Medical Education and Research, priority 2015, published 2018).

Assays:
[1] = tested on: Neurons cultured from neonatal mice; test: Calcium imaging of spontaneous network activity (GCaMP reporter); type: cell-based, mouse; details: for correlation of spontaneous activity (Pearson correlation matrix): cytokine-stimulated cultures vs vehicle control (overall uncorrelated); for correlation of spontaneous activity (Pearson correlation matrix) / absolute number of spontaneously active cells: FIG. 7; for absolute number of spontaneously active cells: cytokine-stimulated networks, vehicle control 42 neurons
Protocol: The PBS control cultures show low amplitude calcium transients that are non-synchronous. […] Calcium levels were monitored using a fluorescent reporter transduced into the neurons with […].
The Pearson correlation matrix was calculated for all of the neurons showing spontaneous activity in the culture and heat-mapped (red=highly correlated activity; blue=uncorrelated activity). In the vehicle control neurons, there is a small cluster of synchronous activity but the overall network is uncorrelated.
Neurons are cultured in glass imaging chambers under conditions that promote formation of mature synaptic networks. Cells are infected with an AAV1.Syn.GCaMP6f calcium reporter that provides fast optical tracking of intracellular calcium levels (Akerboom et al., 2012, J. Neurosci., 32:[…]; Chen et al., 2013, Nature, 499:295-300). Calcium levels are monitored in real-time using a Zeiss 5-Live confocal microscope equipped with environmental chamber. Following collection of baseline spontaneous activity levels at low magnification, inflammatory cytokine is added at the optimal cytokine concentration determined above, and cells are followed for up to 60 minutes. Images are post-processed in Image J to measure calcium transient amplitudes and frequencies within defined cells. In some experiments, an Olympus multi-photon microscope is used at high magnification to track activity in individual synapses. In addition to spontaneous activity, calcium flux elicited by addition of glutamate to cultures that have been pretreated with inflammatory cytokines for different times (0, 1, 3, 6, 12, 24, 48, 72, or 96 hr) prior to stimulation also is measured.
Neurons were cultured from neonatal mice and stimulated with TNF alpha (100 ng/mL) or IFN gamma (500 U/mL) for 24 hr. Following transduction with an AAV-encoded GCaMPf reporter, fast calcium transients were imaged in the cells. Regions of interest outlining individual neurons were defined in each frame of movies collected over several minutes, and the fluorescence intensity of each cell was graphed through time to reveal patterns in the population response.

[2] = tested on: Mouse cortical neurons; test: IFN gamma stimulation of distal axons in two-chamber device, microarray of cell body RNA; type: cell-based; details: IFN gamma added to axon chamber, RNA from cell body chamber 72 hours later
Protocol: Mouse cortical neurons were cultured in a two-chamber device that separates cell bodies from axons. Panel A is a schematic of the chambered device constructed in PDMS polymer. Panel B is a low-magnification image of the corresponding regions shown in Panel A stained with an antibody against neurofilament (an axon-specific protein). Higher magnification images are shown of the cell body chamber (Panel C), the axon grooves (Panel D), and the axon chamber (Panel E). DAPI staining indicates the complete absence of any cells in the axon chamber. Panel F is a schematic showing the experimental design: IFNgamma was added to the pure axons in the axon chamber; RNA was collected from the cell body chamber 72 hours later and analyzed by microarray to identify changes in gene expression.
Mouse cortical neurons were cultured in a two-chamber device that separates cell bodies from axons.
IFN gamma was added to the pure axons in the axon chamber, and RNA was collected from the cell body chamber 72 hours later. The RNA was analyzed by microarray to identify changes in gene expression.

[3] = tested on: Mouse cortical neurons; test: IFN gamma-induced transcriptional changes, Illumina BeadArray; type: cell-based; details: IFN gamma 500 U/mL, 24 hr, vs untreated controls; mean±95% confidence intervals
Protocol: Cortical neurons were prepared from embryonic day 15 C57BL/6 mouse fetuses, following published protocols (Sauer et al., 2013, Neurobiol. Dis., 59:194-205). In preliminary experiments, after one week in vitro, the neurons were stimulated for 24 hr with IFN gamma (500 U/mL). Quadruplicate RNA samples were collected under treated and untreated conditions, and changes in gene expression were assessed using the Illumina BeadArray system. Only genes that were detected at P<0.05 on the array were considered for further analysis. Expression levels were […] and the relative level of expression following IFN gamma stimulation was compared to untreated controls. Table 1 provides mean±95% confidence intervals; the appropriate statistical test was chosen based on normality and equal variance tests.

[4] = TNF alpha 100 ng/mL or IFN gamma 500 U/mL for 24 hr, FIGS. 8B and 8C

For `NCCCC(=O)O` [GABA, reference compound], the “averaged calcium responses / synaptic activity” value ([1]; 27 μM GABA added to control cultures, FIG. 8E) was “completely suppresses synaptic activity”.

For “IFN gamma: inflammatory cytokine interferon gamma used to stimulate neurons”, the “GTP cyclohydrolase I expression in neuron cell bodies” value [2] was “significantly up-regulated”, the “MOCOS expression in neuron cell bodies” value [2] was “robust up-regulation” and the “aldehyde dehydrogenase expression in neuron cell bodies” value [2] was “significantly up-regulated”. The “gephyrin expression in neuron cell bodies” value [2] was “down-regulation”, the “glycine receptor beta subunit expression in neuron cell bodies” value [2] was “down-regulation” and the “xanthine dehydrogenase expression in neuron cell bodies” value [2] was “significantly up-regulated”. For the same compound, the “GABA receptor elements expression in neuron cell bodies” value ([2]; not shown) was “down-regulation”, the “gephyrin-binding scaffolds expression in neuron cell bodies” value ([2]; not shown) was “down-regulation” and the “averaged calcium responses / network activity” value [1, 4] was “network bursting and highly synchronized synaptic activity”. The “correlation of spontaneous activity (Pearson correlation matrix)” value [1] was “nearly complete correlation across the entire network”, the “absolute number of spontaneously active cells” value [1] was 137 neurons and the “Fold Change, gene Actb (housekeeping)” value [3] was 1.04 ± 0.06 fold. The “Fold Change, gene Aldh1a1” value [3] was 2.46 ± 0.08 fold, the “Fold Change, gene Collybistin” value [3] was 0.71 ± 0.06 fold and the “Fold Change, gene GABA A R α3” value [3] was 0.66 ± 0.10 fold. For the same compound, the “Fold Change, gene GABA A R β1” value [3] was 0.56 ± 0.09 fold, the “Fold Change, gene GABA A R β2” value [3] was 0.80 ± 0.09 fold and the “Fold Change, gene GABA A R β3” value [3] was 0.75 ± 0.07 fold. The “Fold Change, gene GABA A R γ2” value [3] was 0.64 ± 0.05 fold, the “Fold Change, gene GABA B R2” value [3] was 0.71 ± 0.10 fold and the “Fold Change, gene Gapdh” value [3] was 1.03 ± 0.06 fold. For the same compound, the “Fold Change, gene Gch1” value [3] was 1.59 ± 0.04 fold, the “Fold Change, gene Gephyrin” value [3] was 0.75 ± 0.05 fold and the “Fold Change, gene Glycine R β1” value [3] was 0.59 ± 0.07 fold. For the same compound, the “Fold Change, gene MOCOS” value [3] was 2.97 ± 0.21 fold and the “Fold Change, gene Xdh” value [3] was 1.47 ± 0.14 fold.

In the case of TNF alpha, the “averaged calcium responses / network activity” value [1, 4] is reported as “network bursting and highly synchronized synaptic activity”, the “correlation of spontaneous activity (Pearson correlation matrix)” value [1] is reported as “nearly complete correlation across the entire network” and the “absolute number of spontaneously active cells” value [1] is reported as 151 neurons. The “spontaneous calcium levels in neurons” value ([1]; stimulated for 24 hr, vs PBS control with low amplitude non-synchronous transients, FIG. 6) was “large amplitude calcium signals that were highly synchronized”.

picrotoxin [reference compound] was tested, and the “averaged calcium responses / network activity” value ([1]; control cultures treated with 2.4 μM picrotoxin, FIG. 8D) was “induces network synchrony and bursting”.
